From the supplement of paper PMC6723410

Test system: GUMC-403
Assay: viability at highest tested concentration (max response) relative to DMSO (% of DMSO control); higher = less cytotoxic
Settings: library / dose series: MIPE library, 11-point 1:3 dilution; top concentration 23 µM; 48 h
Method in brief: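 GUMC-403 papilloma cells, derived from a patient and expanded by conditional reprogramming, were dispensed at 700/well into 1536-well plates in 5 μL F + Y medium. A pin tool delivered 23 nL of each compound across an 11-point 1:3 dilution series for 48 h. CellTiter-Glo luminescence, read on a ViewLux, was normalised so that vehicle wells equalled 100% and empty wells 0%. Values report viability at the highest tested concentration relative to vehicle control.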

Compound | viability
N=C1N[C@H]2[C@H](CS[C@H]2CCCCC(=O)O)N1 | 134

Same assay, conditions: library / dose series: MIPE library, 11-point 1:3 dilution; top concentration 46.1 µM; 48 h

Compound | viability
O=[S+]([O-])(NCCNC/C=C/c1ccc(Br)cc1)c1cccc2cnccc12 | 72.3
CCCCCCOC(=O)/N=C(/N)c1ccc(NCc2nc3cc(C(=O)N(CCC(=O)OCC)c4ccccn4)ccc3n2C)cc1 | 115
CC(=O)OC\C1=C(\[N@]2[C@@H](SC1)[C@H](N)C2=O)C(O)=O | 143
CCOC(=O)C(C)(C)Oc1ccc(Cl)cc1 | 110
OC[C@@H](O)[C@@H](O)[C@H](O)[C@@H](O)CO | 128
CC(C)(C)NCC(O)c1ccc(O)c(CO)c1 (stereo not drawn) | 109
CCCCCCCCCCCCCCCC(=O)OC[C@@H](NC(=O)C(Cl)Cl)[C@H](O)c1ccc([N+](=O)[O-])cc1 | 130
CN1[C@@H]2CC[C@H]1CC(OC(=O)c1c[nH]c3ccccc13)C2 (stereo partly drawn) | 134
c1cc(-c2sc(-c3ccncc3)c(-c3ccncc3)c2-c2ccncc2)ccn1 | 106
Cc1ccccc1C(=O)Nc1ccc(C(=O)N2CCCC(O)c3cc(Cl)ccc32)c(C)c1 (stereo not drawn) | 108
OC(=O)C(CC/1=C/C(=O)NC2=CC=CC=C12)NC(=O)C3=CC=C(Cl)C=C3 (stereo not drawn) | 132
COC(=O)N[C@H](C(=O)N1CCC[C@H]1c1ncc(-c2ccc(-c3ccc(-c4cnc([C@@H]5CCCN5C(=O)[C@@H](NC(=O)OC)C(C)C)[nH]4)cc3)cc2)[nH]1)C(C)C | 138
CN1\C(=C(\O)C2=C(C=CS2)[S+]1([O-])=O)C(=O)NC3=CC=CC=N3 | 126
C[C@H](O)[C@H]1[C@@H]2[C@H](C)C(=C(\N2C1=O)C(O)=O)/S[C@@H]3CN[C@H](CN[S+](N)([O-])=O)C3 | 120
Clc1ccc(C(Cn2ccnc2)OCc2ccsc2Cl)c(Cl)c1 (stereo not drawn) | 107
CC(=O)SC[C@@H](C)C(=O)N1CCC[C@H]1C(=O)N[C@@H](Cc1ccccc1)C(=O)O | 135

Compound | viability
CC[C@H](NC(=O)[C@H](C)NC)C(=O)N1C[C@@H](O)C[C@H]1Cc1c(-c2[nH]c3cc(F)ccc3c2C[C@@H]2C[C@H](O)CN2C(=O)[C@H](CC)NC(=O)[C@H](C)NC)[nH]c2cc(F)ccc12 | 108
CCCCCCCc1ccc(CCc2cccc(O)c2C(=O)O)cc1 | 108
Cc1cc(C(C)(C)C)c(O)c(C)c1CC1=NCCN1 | 120
CC(C)C[C@H](NC(=O)[C@@H](O)[C@H](N)Cc1ccccc1)C(=O)O | 102
CCCCCCCCCCCCCCCC(=O)O[C@@H]1[C@@H](O)[C@@H](O)[C@@H]([C@H](NC(=O)[C@@H]2C[C@@H](CCC)CN2C)[C@H](C)Cl)O[C@@H]1SC.Cl | 116
O=C1Nc2cc(Br)ccc2/C1=C1/Nc2ccccc2/C1=N\O | 31.3
CC(=O)C1=C(O)C2(C)C(=CC1=O)Oc1c(C(C)=O)c(O)c(C)c(O)c12 (stereo not drawn) | 143
CC(C)[C@H](CO)Nc1nc(Nc2ccc(C(=O)O)c(Cl)c2)c2ncn(C(C)C)c2n1 | 75.1
C/C(O)=C(\C#N)C(=O)Nc1cc(Br)ccc1Br | 101
CC(C)[C@H]1C(=O)N[C@H](CO)Cc2c[nH]c3cccc(c23)N1C | 107
C[C@@H]1[C@H](O)[C@@H](C)/C=C/C=C/C=C/C=C/C=C/C=C/C=C/[C@H](O[C@@H]2O[C@H](C)[C@@H](O)[C@H](N)[C@@H]2O)C[C@@H]2O[C@](O)(C[C@@H](O)C[C@@H](O)[C@H](O)CC[C@@H](O)C[C@@H](O)CC(=O)O[C@H]1C)C[C@H](O)[C@H]2C(=O)O | 123
O=C(c1ccc(Nc2nccc(-c3cc4ccccc4s3)n2)cc1)N1CCC(N2CCCC2)CC1 | 41
CCOC(=O)[C@@H](N)CCC(=O)N[C@@H](CSCc1ccccc1)C(=O)N[C@@H](C(=O)OCC)c1ccccc1 | 95.5
CN1CC/C(CC1)=C3\c4ccccc4CC(=O)c2sccc23 | 97.2
O=C(C=CC#Cc1cccc(N[S+](=O)([O-])c2ccccc2)c1)NO | 108

Same assay, conditions: library / dose series: MIPE library, 11-point 1:3 dilution; top concentration 92.2 µM; 48 h

Compound | viability
CC(=O)Oc1ccccc1C(=O)Nc1ncc([N+](=O)[O-])s1 | 82.2
